This is an account of results in patent US7618990B2, “Oxazolidone derivatives as PR modulators” (Wyeth, priority 2006, dated 2009).

Molecules are shown by their SMILES.

Data set [1] relates to alkaline phosphatase activity in T47D cells. As to the kind of experiment: Effects of progestins and antiprogestins on alkaline phosphatase activity in T47D cells (antagonist mode). In kind it is cell-based. Particulars: Homo sapiens, in the presence of 1 nM progesterone, read-out: T47D Alkaline Phosphatase Activity IC50 (nM) or % inhibition; for IC50: 24 h.
For data set [2], the target named is T1, progesterone receptor (PR) (Homo sapiens, UniProt P06401).
T1 construct: in live, intact (whole) cells using the human breast carcinoma T47D cell line; endogenous in cells; host or cells: T47D human breast carcinoma cells
T1 sequence (P06401 1-933): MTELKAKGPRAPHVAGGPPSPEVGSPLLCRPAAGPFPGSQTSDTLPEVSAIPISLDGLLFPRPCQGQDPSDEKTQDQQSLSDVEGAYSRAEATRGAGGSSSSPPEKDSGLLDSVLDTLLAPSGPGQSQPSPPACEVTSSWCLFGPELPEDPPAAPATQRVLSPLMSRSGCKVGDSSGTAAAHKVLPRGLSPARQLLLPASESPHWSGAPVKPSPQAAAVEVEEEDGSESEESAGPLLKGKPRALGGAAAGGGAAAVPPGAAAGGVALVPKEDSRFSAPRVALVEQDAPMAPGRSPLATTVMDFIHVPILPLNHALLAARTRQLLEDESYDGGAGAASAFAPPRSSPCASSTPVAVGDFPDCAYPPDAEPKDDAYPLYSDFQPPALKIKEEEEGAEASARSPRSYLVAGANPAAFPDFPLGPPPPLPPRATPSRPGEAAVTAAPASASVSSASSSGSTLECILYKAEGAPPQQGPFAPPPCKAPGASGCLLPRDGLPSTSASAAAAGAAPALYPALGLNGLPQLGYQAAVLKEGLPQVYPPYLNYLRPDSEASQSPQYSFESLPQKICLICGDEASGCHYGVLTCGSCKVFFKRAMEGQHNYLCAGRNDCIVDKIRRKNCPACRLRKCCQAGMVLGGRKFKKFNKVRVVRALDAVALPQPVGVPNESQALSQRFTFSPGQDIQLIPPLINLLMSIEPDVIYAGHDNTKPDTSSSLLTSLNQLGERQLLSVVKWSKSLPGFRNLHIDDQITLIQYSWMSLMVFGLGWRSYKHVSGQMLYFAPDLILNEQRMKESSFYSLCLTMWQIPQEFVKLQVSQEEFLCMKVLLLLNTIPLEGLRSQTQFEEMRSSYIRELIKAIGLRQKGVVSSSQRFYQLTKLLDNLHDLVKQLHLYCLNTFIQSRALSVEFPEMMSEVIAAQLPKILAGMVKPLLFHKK
As to the kind of experiment: Progesterone receptor whole cell competition binding assay using T47D cells. The conditions noted are these: intact T47D cells, 3 nM 3H-progesterone, 3 h at 37° C. The procedure:
(2) Progesterone Receptor Whole Cell Competition Binding Assay Using T47D Cells
PURPOSE: To evaluate the progesterone receptor (PR) binding activity of progestins or antiprogestins in live, intact (whole) cells using the human breast carcinoma T47D cell line and ^3H-progesterone as the labeled ligand.
Culture Medium: • 5% RC: phenol red free DMEM:F12 (1:1) (GIBCO, BRL) supplemented with 5% (v/v) charcoal stripped fetal bovine serum (not heat-inactivated), 100 U/mL penicillin, 100 μg/mL streptomycin, and 2 mM the GlutaMax™ reagent (GIBCO, BRL). • 10% RC: Same as above supplemented with 10% (v/v) FBS. • ^3H-Progesterone: Perkin Elmer Life Science, cat# NET-381 (typically around 102 Ci/mmol)
T47D cells were maintained in 10% RC media at 37° C. in a 5% CO2/humidified atmosphere and were split twice weekly for proper response. Cells were plated in 10% RC the day before binding assay at 50,000 cells per well in the white, clear bottom plates purchased through VWR or Perkin Elmer.
Cells plated the day prior to the assay in white clear bottom plates were used. A master compound plate was set up containing control and test compounds at 20× final desired concentration for the competition binding. A typical dose range of 20× concentrations were (in nM); 200,000; 20,000; 6000; 2000; 600; 200; 20; and 2. Final concentrations were (in nM); 10,000; 1000; 300; 100; 30; 10; 1; 0.1. Control compounds were typically run 10-fold lower than this and include a 0, or vehicle, control well. A stock of 60 nM ^3H-progesterone (20×) were also prepared at a volume needed of 10 μL per well.
Media on cells were replaced with 180 μL of 5% RC. Ten microliters (10 μL) of 60 nM ^3H-progesterone (for final concentration of 3 nM) was added immediately, followed by 10 μL of 20× test or control compounds. Compounds were incubated for 3 h at 37° C. (A time course study found no difference between 2 and 4 h incubation.)
Following incubation, media was carefully removed and cells were washed 3× with 200 μL 5% RC each wash. Fifty microliters of liquid scintillation cocktail was added and the plates were shaken vigorously for a minimum of 15 min. Plates were read on the Wallac Microbeta® 1450 plate reader.
Square root-transformed data were used for analysis of variance and calculation of IC50. SAS software (SAS Institute, Inc.) was used for all the statistical analysis.
Progesterone was used as a reference progestin and RU486 as a reference antiprogestin.

Take `C[C@@H]1COC(=O)N1c1nc(-c2ccc(Br)cc2)cs1` [Example 1, (4R)-3-[4-(4-Bromophenyl)-1,3-thiazol-2-yl]-4-methyl-1,3-oxazolidin-2-one]: the melting point lay within 197 to 199 °C. The IC50 in data set [1] was 22.1 nM. In data set [2], this molecule yielded a Ki of 87.6 nM.

Molecule `C[C@@H]1COC(=O)N1c1nc(-c2ccc(C#N)cc2)cs1` [Example 2, 4-{2-[(4R)-4-Methyl-2-oxo-1,3-oxazolidin-3-yl]-1,3-thiazol-4-yl}benzonitrile] showed a melting point of 227 to 228 °C. Also, in data set [1], the IC50 came out at 14.6 nM. In data set [2], this molecule yielded a Ki of 43.4 nM.

Turning to `C[C@H]1COC(=O)N1c1nc(-c2ccc(Br)cc2)cs1` [Example 3, (4S)-3-[4-(4-Bromophenyl)-1,3-thiazol-2-yl]-4-methyl-1,3-oxazolidin-2-one], the melting point lay within 196 to 198 °C. In data set [1], the IC50 turned out to be 24.6 nM. In data set [2], this molecule yielded a Ki of 55.3 nM.

With `C[C@H]1COC(=O)N1c1nc(-c2ccc(C#N)cc2)cs1` [Example 4, 4-{2-[(4S)-4-Methyl-2-oxo-1,3-oxazolidin-3-yl]-1,3-thiazol-4-yl}benzonitrile], the melting point was 205 to 207 °C. For the same molecule, the IC50 in data set [1] was determined as 15.8 nM. Moreover, in data set [2], the Ki turned out to be 62.8 nM.

As to `CC1(C)COC(=O)N1c1nc(-c2ccc(Br)cc2)cs1` [Example 5, 3-[4-(4-Bromophenyl)-1,3-thiazol-2-yl]-4,4-dimethyl-1,3-oxazolidin-2-one], the melting point lay in the range of 165 to 167 °C. Besides, the IC50 in data set [1] worked out at 6.4 nM. In data set [2], this molecule registered a Ki of 38.2 nM.

Molecule `CC[C@H]1COC(=O)N1c1nc(-c2ccc(Br)cc2)cs1` [Example 7, (4S)-3-[4-(4-Bromophenyl)-1,3-thiazol-2-yl]-4-ethyl-1,3-oxazolidin-2-one] registered a melting point of 138 to 140 °C. For the same molecule, the IC50 in data set [1] worked out at 23 nM. This molecule yielded a Ki in data set [2] of 75.3 nM.

The molecule `CC[C@H]1COC(=O)N1c1nc(-c2ccc(C#N)cc2)cs1` [Example 8, 4-{2-[(4S)-4-Ethyl-2-oxo-1,3-oxazolidin-3-yl]-1,3-thiazol-4-yl}benzonitrile] registered a melting point of 173 to 175 °C. The IC50 in data set [1] was determined as 14.6 nM. The same molecule yielded a Ki in data set [2] of 52.6 nM.

Take `O=C1OCC2(CCC2)N1c1nc(-c2ccc(Br)cc2)cs1` [Example 26, 5-[4-(4-Bromophenyl)-1,3-thiazol-2-yl]-7-oxa-5-azaspiro[3.4]octan-6-one]: the IC50 in data set [1] was 49.4 nM. In data set [2], this molecule came in with an inhibition constant (Ki) of 91.8 nM.

`CC1(C)COC(=O)N1c1nc(-c2csc(C#N)c2)cs1` [Example 61, 4-[2-(4,4-Dimethyl-2-oxo-1,3-oxazolidin-3-yl)-1,3-thiazol-4-yl]thiophene-2-carbonitrile]: the melting point was 249 to 251.5 °C. Besides, in data set [1], the IC50 turned out to be 37.8 nM.

Molecule `CC1OC(=O)N(c2nc(-c3ccc(C#N)cc3)cs2)C1(C)C` (stereo not drawn) [Example 62, 4-[2-(4,4,5-Trimethyl-2-oxo-1,3-oxazolidin-3-yl)-1,3-thiazol-4-yl]benzonitrile] yielded a melting point of 166 to 167 °C. Also, the IC50 in data set [1] worked out at 1.8 nM.

In turn, `CC1(C)COC(=N)N1c1nc(-c2ccc(C#N)cc2)cs1` [Example 63, 4-[2-(2-imino-4,4-dimethyl-1,3-oxazolidin-3-yl)-1,3-thiazol-4-yl]benzonitrile] had a melting point of 158 to 161 °C. In addition, the IC50 in data set [1] came to 53.4 nM.

The molecule `O=C1OCC(CC(F)(F)F)N1c1nc(-c2ccc(Br)cc2)cs1` (stereo not drawn) [Example 67, 3-[4-(4-Bromophenyl)-1,3-thiazol-2-yl]-4-(2,2,2-trifluoroethyl)-1,3-oxazolidin-2-one] came in with a melting point of 163 to 165 °C. In addition, the IC50 in data set [1] came to 95.5 nM.

Regarding `N#Cc1ccc(-c2csc(N3C(=O)OC[C@@H]3CC(F)(F)F)n2)cc1` [Example 68, 4-{2-[(4S)-2-Oxo-4-(2,2,2-trifluoroethyl)-1,3-oxazolidin-3-yl]-1,3-thiazol-4-yl}benzonitrile], the melting point lay in the range of 235 to 238 °C. Besides, the IC50 in data set [1] was determined as 29.1 nM.

`N#Cc1ccc(-c2csc(N3C(=O)OC[C@H]3CC(F)(F)F)n2)cc1` [Example 69, 4-{2-[(4R)-2-Oxo-4-(2,2,2-trifluoroethyl)-1,3-oxazolidin-3-yl]-1,3-thiazol-4-yl}benzonitrile] displayed a melting point of 235 to 238 °C. Further, the IC50 in data set [1] turned out to be 63.8 nM.

For `COC(=O)[C@@H]1COC(=O)N1c1nc(-c2ccc(Br)cc2)cs1` [Example 70, Methyl (4S)-3-[4-(4-bromophenyl)-1,3-thiazol-2-yl]-2-oxo-1,3-oxazolidine-4-carboxylate], the melting point was in the range of 165 to 167 °C. In addition, the inhibition at 3 µM in data set [1] (% inhibition at 3000 nM) was found to be 90%.

In turn, `O=C1OC[C@@H](CO)N1c1nc(-c2ccc(Br)cc2)cs1` [Example 71, (4R)-3-[4-(4-Bromophenyl)-1,3-thiazol-2-yl]-4-(hydroxymethyl)-1,3-oxazolidin-2-one] came in with a melting point of 189 to 192 °C. In data set [1], the IC50 was found to be 565 nM.

Consider `O=C1OC[C@@H](CCl)N1c1nc(-c2ccc(Br)cc2)cs1` [Example 72, (4S)-3-[4-(4-Bromophenyl)-1,3-thiazol-2-yl]-4-(chloromethyl)-1,3-oxazolidin-2-one], for which, in data set [1], the IC50 came to 5.4 nM. For the same molecule, the Ki in data set [2] was 20 nM.

On to `CC1(C)OCC(=O)N1c1nc(-c2ccc(Br)cc2)cs1` [Example 77, 3-[4-(4-Bromophenyl)-1,3-thiazol-2-yl]-2,2-dimethyl-1,3-oxazolidin-4-one], for which the IC50 in data set [1] is 372 nM. The same molecule displayed a Ki in data set [2] of 584 nM.

`CC1(C)COC(=O)N1c1nc(-c2ccc(Br)cc2F)cs1` [Example 78, 3-[4-(4-Bromo-2-fluorophenyl)-1,3-thiazol-2-yl]-4,4-dimethyl-1,3-oxazolidin-2-one]: the IC50 in data set [1] is 24.8 nM. The Ki in data set [2] is 45.6 nM.

As to `CC1(C)COC(=O)N1c1nc(-c2ccc(C#N)cc2F)cs1` [Example 79, 4-[2-(4,4-Dimethyl-2-oxo-1,3-oxazolidin-3-yl)-1,3-thiazol-4-yl]-3-fluorobenzonitrile], in data set [1], the IC50 came out at 31.6 nM. This molecule displayed a Ki in data set [2] of 170 nM.

On to `CC1(C)COC(=O)N1c1nc(-c2ccc([N+](=O)[O-])cc2)cs1` [Example 80, 4,4-Dimethyl-3-[4-(4-nitrophenyl)-1,3-thiazol-2-yl]-1,3-oxazolidin-2-one], for which the IC50 in data set [1] came out at 8.6 nM. In addition, the affinity in data set [2] corresponds to a Ki of 34.5 nM.

On to `CC1(C)COC(=O)N1c1nc(-c2ccc(C#N)c(F)c2)cs1` [Example 81, 4-[2-(4,4-Dimethyl-2-oxo-1,3-oxazolidin-3-yl)-1,3-thiazol-4-yl]-2-fluorobenzonitrile], for which the IC50 in data set [1] turned out to be 2.3 nM. In data set [2], the Ki was roughly 2000 nM.
